The test system of data set [1] is Mesocestoides corti tetrathyridia. The data set is described as follows: Motility index of tetrathyridia, WMicrotracker (light scattering). The method, then:
For the motility index measurement, the method of Camicia et al. was followed with minor modifications. In the case of E. granulosus, protoscoleces were mantained in RPMI medium with high glucose (Gibco, USA) with 50 μg/ml of gentamicin for no more than 48 hours in order to avoid the potential differentiation of the protoscolex towards premicrocyst. The day before the experiment the protoscoleces were transferred to U-shape 96-well microplates (Greiner Bio-One, Germany) with approximately 125 parasites per 100 μl per well. This number of parasites per well was empirically determined as the best number of worms to perform the experiments. Movement was measured as described for C. elegans using a worm tracker device (WMicrotracker Designplus SRL, Argentina) which determines the motility index by the light-microbeam (100 μm wide; k = 880 nm; intensity <1 mW) scattering produced by the movement of parasites. Quantification of the signal was performed by applying a mathematical algorithm previously described for sperm viability determination (Patent number: US4176953, year of submission: 1978, year of publication: 1979).
To study the effect of 5-HT on the motility of M. corti tetrathyridia, only one worm per well was used as this was the empirically determined optimal number. […] M. corti tetrathyridia were used fresh, immediately after the mice was opened. […]

A further data set concerns the target 5-HT7Mco1 (Mesocestoides corti, UniProt A0A482LRJ4). The experiment in a line: cell-based. In kind it is cell-based. The method, then: (§1) HEK-293 cells (ATCC CRL-1573.3) were cultured in growth media [DMEM (Gibco), 10% heat inactivated fetal bovine serum (Gibco), penicillin (100units/mL), streptomycin (100μg/mL) and L-glutamine (290μg/mL)] and used for assays between passages 5 and 25. For cestode GPCR heterologous expression assays, cells were transfected (Lipofectamine 2000, Invitrogen) at 80% confluency approximately 16 hours after seeding within T-25 culture flasks with a 1:1 ratio of human codon optimized cestode GPCR cDNA (subcloned into a pcDNA3.1(-) mammalian expression vector) and cDNA encoding the pGloSensor 22-F plasmid (Promega). The following day, cells were trypsinized, centrifuged (300g/5min), resuspended in DMEM supplemented with 1% dialyzed FBS (Gibco) and plated in 96 well, solid white plates (Corning, cat # 3917). After overnight culture to allow adherence, media was exchanged for assay buffer (HBSS supplemented with 0.1% BSA, 20mM HEPES (pH 7.4), and GloSensor reagent (Promega). cAMP-luminescence assays were performed following addition of a phosphodiesterase inhibitor (3-isobutyl-1-methylxanthine, IBMX; 200μM) using a GloMax-Multi Detection System plate reader (Promega) as described previously.

Data set [2] deals with Mesocestoides corti tetrathyridia. Also noted: method as in PMID 12003065. The settings on record: 30 minutes of incubation; cited from earlier work.
The target in another data set is 5-HT7Egran2 (Echinococcus canadensis, UniProt A0A482LXK0). The experiment in a line: cell-based. Format: cell-based, Echinococcus granulosus. The method, then:
as §1

The target of a further data set is 5-HT7Egran1 (Echinococcus canadensis, UniProt A0A482LU10). The data set is described as follows: cell-based. Format: cell-based, Echinococcus granulosus. The settings on record: for pharmacological behaviour (agonist/antagonist, efficacy) in cAMP assay: 5-HT7Egran1. The method, then:
as §1

Data set [3] deals with Mesocestoides corti tetrathyridia. The data set is described as follows: Motility of tetrathyridia by video imaging. The settings on record: period of 30 minutes. The method, then: In some experiments, alongside to the worm tracker motility analyses, the parasite motor activity was also measured with a digital video camera (Kodak easy share Z915 digital camera) coupled to an inverted microscope (Nikon, model TMS-F). Fresh parasites were processed in the same way as in previous sections in U-shape 96-well microplates, then incubated overnight at 37°C in a 5% CO2 atmosphere and finally video recorded with a digital camera after drug treatment. Images were obtained for a period of 15 seconds and the data were analyzed with ImageJ software (version 1.48, NIH, USA). […] To quantify this type of movements the method of Patocka et al. was followed with some modifications. The videos were transformed to stacks of TIFF images by using the Filmora video editor (Wondershare Filmora, version 8.2.3, downloaded from https://filmora.wondershare.es/) and then imported into ImageJ. First, the stacks were first converted to 8 bit type images. Next, the background was subtracted and then converted to a binary image by threshold adjust. […]
Statistical analyses were carried out using the GraphPad Prism Software package, version 6 for Windows (GraphPad Software, CA, USA). […] For image based assays, pixel changes in control and treatments were calculated and analyzed with one way ANOVA and Dunnett post-test were performed comparing all the concentrations with the control. […]

The target of the next data set is human 5-HT1A receptor. Also noted: method as in PMID 24900203. The settings on record: cited from earlier work.

Like-named read-outs stand apart in the source and are kept apart here.

Sequence of 5-HT7Egran1 (A0A482LU10 entry or part of it): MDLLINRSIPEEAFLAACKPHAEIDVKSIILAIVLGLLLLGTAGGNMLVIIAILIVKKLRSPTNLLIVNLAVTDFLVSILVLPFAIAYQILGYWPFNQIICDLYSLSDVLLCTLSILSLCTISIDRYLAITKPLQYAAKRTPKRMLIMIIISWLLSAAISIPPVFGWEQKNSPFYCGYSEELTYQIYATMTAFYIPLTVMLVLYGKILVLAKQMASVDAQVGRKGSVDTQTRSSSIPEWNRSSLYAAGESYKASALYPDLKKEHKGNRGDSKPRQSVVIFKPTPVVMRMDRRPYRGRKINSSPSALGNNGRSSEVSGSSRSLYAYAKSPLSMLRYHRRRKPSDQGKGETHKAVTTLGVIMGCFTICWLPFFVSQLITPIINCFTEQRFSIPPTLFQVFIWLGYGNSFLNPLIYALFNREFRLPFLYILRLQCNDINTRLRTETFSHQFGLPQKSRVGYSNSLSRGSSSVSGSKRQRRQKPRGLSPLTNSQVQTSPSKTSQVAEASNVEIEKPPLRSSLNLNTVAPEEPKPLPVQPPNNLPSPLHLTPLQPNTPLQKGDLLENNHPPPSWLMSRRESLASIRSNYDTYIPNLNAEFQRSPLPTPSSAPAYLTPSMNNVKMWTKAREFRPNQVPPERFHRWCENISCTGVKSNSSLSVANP
Sequence of 5-HT7Egran2 (A0A482LXK0 entry or part of it): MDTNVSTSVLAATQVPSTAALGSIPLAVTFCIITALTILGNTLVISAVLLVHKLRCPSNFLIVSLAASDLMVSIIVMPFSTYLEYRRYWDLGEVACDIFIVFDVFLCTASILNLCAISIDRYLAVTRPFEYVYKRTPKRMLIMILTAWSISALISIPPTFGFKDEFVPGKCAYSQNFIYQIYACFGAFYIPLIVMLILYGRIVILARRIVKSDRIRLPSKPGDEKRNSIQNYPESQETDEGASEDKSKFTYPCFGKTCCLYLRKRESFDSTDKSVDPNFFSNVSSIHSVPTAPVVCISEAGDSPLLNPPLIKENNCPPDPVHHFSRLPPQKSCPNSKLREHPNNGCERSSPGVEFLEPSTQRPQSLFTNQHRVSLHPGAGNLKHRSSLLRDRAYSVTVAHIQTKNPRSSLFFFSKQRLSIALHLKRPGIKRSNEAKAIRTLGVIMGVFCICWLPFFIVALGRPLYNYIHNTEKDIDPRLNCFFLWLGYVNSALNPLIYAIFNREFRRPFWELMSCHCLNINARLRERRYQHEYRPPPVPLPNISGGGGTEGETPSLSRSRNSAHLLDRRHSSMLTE
Sequence of 5-HT7Mco1 (A0A482LRJ4 entry or part of it): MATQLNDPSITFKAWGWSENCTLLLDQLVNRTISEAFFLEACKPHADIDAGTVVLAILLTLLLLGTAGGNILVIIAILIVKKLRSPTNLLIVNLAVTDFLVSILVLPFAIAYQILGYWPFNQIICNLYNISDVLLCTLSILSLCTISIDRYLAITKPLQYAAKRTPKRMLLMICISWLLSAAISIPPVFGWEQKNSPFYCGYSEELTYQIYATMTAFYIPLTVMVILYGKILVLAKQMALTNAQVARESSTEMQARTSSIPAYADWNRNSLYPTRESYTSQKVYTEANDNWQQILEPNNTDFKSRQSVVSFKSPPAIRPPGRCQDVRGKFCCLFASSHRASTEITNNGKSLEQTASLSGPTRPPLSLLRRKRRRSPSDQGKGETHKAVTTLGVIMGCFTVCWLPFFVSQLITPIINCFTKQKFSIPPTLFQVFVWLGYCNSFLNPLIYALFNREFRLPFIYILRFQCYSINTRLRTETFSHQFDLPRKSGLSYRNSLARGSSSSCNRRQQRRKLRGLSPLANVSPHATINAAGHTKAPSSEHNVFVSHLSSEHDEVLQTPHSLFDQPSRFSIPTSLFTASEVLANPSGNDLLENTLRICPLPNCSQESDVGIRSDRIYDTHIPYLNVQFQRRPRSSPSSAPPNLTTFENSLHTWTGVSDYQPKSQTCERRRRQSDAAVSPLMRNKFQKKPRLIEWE

In the case of `NCCc1c[nH]c2ccc(O)cc12` [5-HT, 5-hydroxytryptamine], the “concentration from which stimulation of motility is observed” value in data set [1] (30 minutes of incubation, light scattering method) was at least 500 µM. Besides, the “concentration from which a significant rise of motility is seen” value in data set [1] (period of two hours, WMicrotracker, up to 2000 μM) was at least 100 µM. In addition, the EC50 on 5-HT7Mco1 is 0.255 ± 0.063 nM; on 5-HT7Egran2 (HEK-293 cells expressing 5-HT7Egran2, IBMX 200μM, read-out: EC50 for evoked cAMP production), 0.543 ± 0.107 nM; at 5-HT7Egran1 it was 171 ± 57 nM. Further, the “fold-change in luminescence signal on addition of 5-HT” value on 5-HT7Mco1 (cells expressing 5-HT7Mco1, basal coupling) is on record as ~ 2.5 fold; on 5-HT7Egran2 (cells expressing 5-HT7Egran2, basal coupling) it was ~ 3.3 fold; at 5-HT7Egran1 (cells expressing 5-HT7Egran1), ~ 20 fold. Further, the “concentration previously reported to stimulate tetrathyridia motility” value in data set [2] is 100 nM. For the same compound, the “concentration necessary for significant changes in motility” value in data set [3] came out at 1000 µM.
As to `CCN(CC)C(=O)[C@@H]1C=C2c3cccc4[nH]cc(c34)C[C@H]2N(C)C1` [LSD, Lysergic acid diethylamide], the half-maximal effective concentration (EC50) was determined as 4.4 ± 1 nM on 5-HT7Mco1 and 35 ± 6 nM on 5-HT7Egran1. In addition, the “pharmacological behaviour (agonist/antagonist, efficacy) in cAMP assay” value at 5-HT7Mco1 (5-HT7Mco1) is given as “potently activated”; at 5-HT7Egran2 (5-HT7Egran2) it was “antagonist”; at 5-HT7Egran1, “potently activated”. The IC50 at 5-HT7Egran2 is 2.9 ± 0.2 nM.
For the compound `CN(C)c1cccc2c(S(=O)(=O)NCCCCC34CCCN3C(=O)N(CCCCN3CCN(c5cccc6ccccc56)CC3)C4=O)cccc12` (centres unmarked) [UCM120], the Ki at human 5-HT1A receptor is 2 nM.
For the compound `CN1C[C@H](C(=O)N[C@]2(C)O[C@@]3(O)[C@@H]4CCCN4C(=O)[C@H](Cc4ccccc4)N3C2=O)C=C2c3cccc4[nH]cc(c34)C[C@H]21` [ergotamine], the concentration giving a half-maximal response (EC50) at 5-HT7Mco1 amounted to 354 ± 62 nM; on 5-HT7Egran2, 234 ± 37 nM; at 5-HT7Egran1, 290 ± 49 nM. The “pharmacological behaviour (agonist/antagonist, efficacy) in cAMP assay” value is recorded as “higher efficacy partial agonist” at 5-HT7Mco1 (5-HT7Mco1), “higher efficacy partial agonist” at 5-HT7Egran2 (5-HT7Egran2) and “low efficacy partial agonist” at 5-HT7Egran1.
On to `NCCc1c[nH]c2ccccc12` [tryptamine], for which the EC50 on 5-HT7Mco1 is around 1000 nM; on 5-HT7Egran2 it was around 800 nM. Further, the “cAMP response to neurotransmitter (activation)” value on 5-HT7Mco1 (10μM, cells expressing 5-HT7Mco1) was “activator”; on 5-HT7Egran2 (10μM, cells expressing 5-HT7Egran2), “activator”. For the same compound, the “sensitivity to tryptamine relative to 5-HT (fold less sensitive)” value on 5-HT7Mco1 (5-HT7Mco1) and at 5-HT7Egran2 (5-HT7Egran2) was “at least 1000 fold” in each case.

For orientation: EC50 means the concentration that produces a half-maximal response. A word on the IC50: it is the midpoint of a concentration-inhibition curve. Low values mean inhibition by little substance, high ones a need for much substance. By Ki is commonly meant the equilibrium dissociation constant of an inhibitor or competing ligand from its target.

The record behind these values is PMC5823469, “Unique pharmacological properties of serotoninergic G-protein coupled receptors from cestodes” (PLoS Neglected Tropical Diseases, 2018).
